Measurements: US10988524B2, “Modified relaxin B chain peptides and their therapeutic use” (priority 2018, dated 2021)
Non-standard residues stand in square brackets, D forms with d. Residues, ends and D or L forms follow the SMILES beside them. 1Nal = N[C@@H](Cc1cccc2ccccc12)C(=O)O; Nle = CCCC[C@H](N)C(=O)O; Aib = CC(C)(N)C(=O)O

Each compound was assayed against T1, RXFP1 (Homo sapiens, UniProt Q9HBX9) (assay: OVCAR5 cAMP assay (RXFP1 agonist activity, HTRF)). Details: OVCAR-5, read-out: cAMP assay in OVCAR 5 cells Emax, maximal intracellular cAMP relative to H2-relaxin in the same test occasion.
T1 sequence (Q9HBX9 1-757): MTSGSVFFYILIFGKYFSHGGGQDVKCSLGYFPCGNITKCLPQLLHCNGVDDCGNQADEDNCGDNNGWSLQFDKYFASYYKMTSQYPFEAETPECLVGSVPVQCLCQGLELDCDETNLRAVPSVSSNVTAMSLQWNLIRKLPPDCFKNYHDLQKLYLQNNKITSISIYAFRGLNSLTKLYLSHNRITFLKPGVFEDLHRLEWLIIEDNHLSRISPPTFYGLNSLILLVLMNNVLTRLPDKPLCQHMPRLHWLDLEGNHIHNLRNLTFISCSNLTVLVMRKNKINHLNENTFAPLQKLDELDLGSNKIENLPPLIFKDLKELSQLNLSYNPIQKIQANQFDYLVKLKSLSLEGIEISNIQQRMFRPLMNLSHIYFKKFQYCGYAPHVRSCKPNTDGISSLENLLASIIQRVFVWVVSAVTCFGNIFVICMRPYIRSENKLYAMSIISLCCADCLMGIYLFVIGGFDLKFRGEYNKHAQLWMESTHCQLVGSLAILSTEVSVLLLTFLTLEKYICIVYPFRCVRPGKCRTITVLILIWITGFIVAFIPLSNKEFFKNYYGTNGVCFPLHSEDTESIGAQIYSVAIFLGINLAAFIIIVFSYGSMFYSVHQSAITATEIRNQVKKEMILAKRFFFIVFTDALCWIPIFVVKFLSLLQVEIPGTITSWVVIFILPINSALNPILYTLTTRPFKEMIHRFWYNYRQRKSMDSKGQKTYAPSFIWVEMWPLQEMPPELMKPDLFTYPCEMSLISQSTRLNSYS

Emax [%]	SMILES
97	CCCC[C@H](NC(=O)CNC(=O)[C@H](CCC(=O)O)NC(=O)C(C)(C)NC(=O)C(C)(C)NC(=O)[C@@H](NC(=O)C(C)(C)NC(=O)[C@H](C)NC(=O)[C@H](CCCNC(=N)N)NC(=O)[C@@H](NC(=O)[C@H](CCCCN)NC(=O)[C@H](CCC(=O)O)NC(=O)[C@H](CCCNC(=N)N)NC(=O)CNC(=O)[C@H](CCC(=O)O)NC(=O)[C@H](CC(C)C)NC(C)=O)C(C)C)[C@@H](C)CC)C(=O)N[C@@H](CO)C(=O)N[C@H](C(=O)N[C@@H](Cc1c[nH]c2ccccc12)C(=O)N[C@@H](CO)C(=O)N[C@@H](CCCCN)C(=O)N[C@@H](CCCNC(=N)N)C(=O)N[C@@H](CCCCN)C(=O)N[C@@H](CCCCN)C(N)=O)[C@@H](C)O [compound 19] (Ac-LEGREKVRA[Aib]I[Aib][Aib]EG[Nle]STWSKRKK-NH2)
96	CCCC[C@H](NC(=O)CNC(=O)[C@H](CCC(=O)O)NC(=O)C(C)(C)NC(=O)C(C)(C)NC(=O)[C@@H](NC(=O)C(C)(C)NC(=O)[C@H](CCCCNC(C)=O)NC(=O)[C@H](CCCNC(=N)N)NC(=O)[C@@H](NC(=O)[C@H](CCCCN)NC(=O)[C@H](CCC(=O)O)NC(=O)[C@H](CCCNC(=N)N)NC(=O)CNC(=O)[C@H](CCC(=O)O)NC(=O)[C@H](CC(C)C)NC(C)=O)C(C)C)[C@@H](C)CC)C(=O)N[C@@H](CO)C(=O)N[C@H](C(=O)N[C@@H](Cc1c[nH]c2ccccc12)C(=O)N[C@@H](CO)C(=O)NC(C)(C)C(=O)N[C@@H](CCCNC(=N)N)C(=O)N[C@@H](CCCCN)C(=O)N[C@@H](CCCCN)C(N)=O)[C@@H](C)O [compound 34] (Ac-LEGREKVRK(Ac)[Aib]I[Aib][Aib]EG[Nle]STWS[Aib]RKK-NH2)

The remaining lines, values behind:

SMILES	Emax [%]
CCCC[C@H](NC(=O)CNC(=O)[C@H](CCC(=O)O)NC(=O)C(C)(C)NC(=O)C(C)(C)NC(=O)[C@@H](NC(=O)[C@H](CCCCNC(C)=O)NC(=O)[C@H](C)NC(=O)[C@H](CCCNC(=N)N)NC(=O)[C@@H](NC(=O)[C@H](CCCCN)NC(=O)[C@H](CCC(=O)O)NC(=O)[C@H](CCCNC(=N)N)NC(=O)CNC(=O)[C@H](CCC(=O)O)NC(=O)[C@H](CC(C)C)NC(C)=O)C(C)C)[C@@H](C)CC)C(=O)N[C@@H](CO)C(=O)N[C@H](C(=O)N[C@@H](Cc1cccc2ccccc12)C(=O)N[C@@H](CO)C(=O)NC(C)(C)C(=O)N[C@@H](CCCNC(=N)N)C(=O)N[C@@H](CCCCN)C(=O)N[C@@H](CCCCNC(C)=O)C(N)=O)[C@@H](C)O [compound 29] (Ac-LEGREKVRAK(Ac)I[Aib][Aib]EG[Nle]ST[1Nal]S[Aib]RKK(Ac)-NH2)	98
CC[C@H](C)[C@H](NC(=O)[C@H](CCC(N)=O)NC(=O)[C@H](C)NC(=O)[C@H](CCCNC(=N)N)NC(=O)[C@@H](NC(=O)[C@H](CCCCN)NC(=O)[C@H](CCC(=O)O)NC(=O)[C@H](CCCNC(=N)N)NC(=O)CNC(=O)[C@H](CCC(=O)O)NC(=O)[C@H](CC(C)C)NC(C)=O)C(C)C)C(=O)NC(C)(C)C(=O)NC(C)(C)C(=O)N[C@@H](CCC(=O)O)C(=O)NCC(=O)N[C@@H](CCSC)C(=O)N[C@@H](CO)C(=O)N[C@H](C(=O)N[C@@H](Cc1c[nH]c2ccccc12)C(=O)N[C@@H](CO)C(=O)N[C@@H](CCCCN)C(=O)N[C@@H](CCCNC(=N)N)C(=O)N[C@@H](CCCCN)C(=O)N[C@@H](CCCCN)C(N)=O)[C@@H](C)O [compound 10] (Ac-LEGREKVRAQI[Aib][Aib]EGMSTWSKRKK-NH2)	103
CCCC[C@H](NC(=O)CNC(=O)[C@H](CCC(=O)O)NC(=O)C(C)(C)NC(=O)C(C)(C)NC(=O)[C@@H](NC(=O)[C@H](CCCCNC(C)=O)NC(=O)[C@H](C)NC(=O)[C@H](CCCNC(=N)N)NC(=O)[C@@H](NC(=O)[C@H](CCCCN)NC(=O)[C@H](CCC(=O)O)NC(=O)[C@H](CCCNC(=N)N)NC(=O)CNC(=O)[C@H](CCC(=O)O)NC(=O)[C@H](CC(C)C)NC(C)=O)C(C)C)[C@@H](C)CC)C(=O)N[C@@H](CO)C(=O)N[C@H](C(=O)N[C@@H](Cc1c[nH]c2ccccc12)C(=O)N[C@@H](CO)C(=O)NC(C)(C)C(=O)N[C@@H](CCCNC(=N)N)C(=O)N[C@@H](CCCCN)C(=O)N[C@@H](CCC(N)=O)C(N)=O)[C@@H](C)O [compound 31] (Ac-LEGREKVRAK(Ac)I[Aib][Aib]EG[Nle]STWS[Aib]RKQ-NH2)	96
